According to patent publication US4370336A, “3,5-Disubstituted-1H-1,2,4-triazole derivatives as antifertility agents” (priority 1981, dated 1983):
Like-named read-outs stand apart in the source and are kept apart here.

How the values were obtained:
[1] = system: female Syrian golden hamsters; experiment: post-coital-post-implantation antifertility activity in hamsters, subcutaneous; type: in vivo, Syrian golden hamster; conditions: for ED50: Mesocricetus auratus, sc
Method: (§1) Representative experiments for assessing antifertility activity were carried out with female Syrian golden hamsters weighing 100 to 130 g. The animals were mated and the presence of sperm in the vagina was taken as evidence of mating. […] Pregnancy was later confirmed at the time of autopsy by presence of fetuses or implantation sites in the uterus. Even if an animal aborts the fetus, implantation scars still remain as evidence that the animal has been pregnant.
(§2) The animals were autopsied on day 14 of pregnancy and the uteri were examined for evidence of pregnancy (implantation sites, fetal resorptions or live fetuses), hemorrage, and evidence of abnormalities of the uterus, placenta or fetuses.

[2] = system: female Sprague-Dawley rats; experiment: anti-reproductive activity in rats, subcutaneous; type: in vivo, Sprague-Dawley rat; conditions: Rattus norvegicus, sc; for responders at 20 mg/kg: 384 h, 20 mg/kg s.c. for five days from day 6 of pregnancy, sesame oil, autopsy day 16, read-out: reduction of live fetuses (share of treated rats)
Method: as §1, §2
The same criteria and experimental conditions as above were also applied when the anti-reproductive activity of the compounds of the invention was investigated in other animal species such as, for instance, rats, dogs, monkeys and baboons. In representative experiments, female Sprague-Dawley rats weighing from 200 to 300 g. were treated subcutaneously with a dosage of 20 mg/kg of the compound to be tested, dissolved in sesame oil, for five consecutive days starting from day 6 of pregnancy.

hamsters = experiment: antifertility activity in hamsters by oral route; type: in vivo, hamster; conditions: Mesocricetus auratus; for inhibition in vivo at 10 mg/kg: oral dosage of 10 mg/kg, read-out: reduction of live fetuses; for ED50: po, absence of live fetuses in 50% of the animals
Method: as §1, §2
The experiments for assessing this property were carried out on hamsters following the same procedure as above, with the obvious exception that the compounds were administered orally instead of subcutaneously.

[3] = hamsters, 100% activity (absence of live fetuses) in 50% of the animals, read-out: ED50

SMILES | ED50 [1] | antifertility activity relative to the compounds of the invention ([1]; hamsters, 10 mg/kg s.c. daily for 5 days (days 4-8 of pregnancy), comparison) | responders at 20 mg/kg [2] | ED50 ([2]; absence of live fetuses in 50% of the animals) | inhibition in vivo at 10 mg/kg (hamsters) | ED50 (hamsters) | ED50 [1, 3]
c1ccc(-c2n[nH]c(-c3ccccc3)n2)cc1 [3,5-diphenyl-1H-1,2,4-triazole, reference compound] | 6 mg/kg | much less active |  |  |  |  | 
COc1cccc(-c2n[nH]c(-c3ccccc3C)n2)c1 [Example 1, 3-(m-Methoxyphenyl)-5-(o-tolyl)-1H-1,2,4-triazole] |  |  | ≥ 60% | 1 mg/kg | ~60% | 5 mg/kg | 0.08 mg/kg
COc1ccccc1-c1n[nH]c(-c2ccccc2C)n1 [Example 4, 3-(o-Methoxyphenyl)-5-(o-tolyl)-1H-1,2,4-triazole] |  |  | ≥ 60% |  | ~60% |  | 0.5 mg/kg
CCOc1cccc(-c2n[nH]c(-c3ccccc3C)n2)c1 [Example 9, 3-(m-Ethoxyphenyl)-5-(o-tolyl)-1H-1,2,4-triazole] |  |  |  |  |  |  | 0.07 mg/kg
C=CCOc1cccc(-c2n[nH]c(-c3ccccc3C)n2)c1 [Example 10, 3-(m-Allyloxyphenyl)-5-(o-tolyl)-1H-1,2,4-triazole] |  |  |  |  |  |  | 0.25 mg/kg
C=CCOc1cccc(-c2n[nH]c(-c3ccccc3CC)n2)c1 [Example 13, 3-(m-Allyloxyphenyl)-5-(o-ethylphenyl)-1H-1,2,4-triazole] |  |  |  |  |  |  | 0.1 mg/kg
CCc1ccccc1-c1nc(-c2cccc(F)c2)n[nH]1 [Example 18, 5-(o-Ethylphenyl)-3-(m-fluorophenyl)-1H-1,2,4-triazole] |  |  | ≥ 60% |  | ~60% |  | 0.4 mg/kg
CCc1ccccc1-c1nc(-c2ccc3c(c2)OCO3)n[nH]1 [Example 22, 5-(o-Ethylphenyl)-3-(3,4-methylenedioxyphenyl)-1H-1,2,4-triazole] |  |  | ≥ 60% |  | ~60% | 3 mg/kg | 0.03 mg/kg
Cc1ccc(-c2nc(-c3ccccc3)n[nH]2)c(C)c1 [Example 25, 5-(2,4-Dimethylphenyl)-3-phenyl-1H-1,2,4-triazole] |  |  | ≥ 60% |  | ~60% |  | 0.2 mg/kg
COc1cccc(-c2n[nH]c(-c3ccc(C)cc3C)n2)c1 [Example 26, 5-(2,4-Dimethylphenyl)-3-(m-methoxyphenyl)-1H-1,2,4-triazole] |  |  | ≥ 60% |  | ~60% |  | 0.04 mg/kg
Cc1cc(Cl)ccc1-c1nc(-c2ccccc2)n[nH]1 [Example 29, 5-(4-Chloro-2-methylphenyl)-3-phenyl-1H-1,2,4-triazole] |  |  | ≥ 60% |  | ~60% |  | 0.14 mg/kg
COc1cccc(-c2n[nH]c(-c3ccc(Cl)cc3C)n2)c1 [Example 30, 5-(4-Chloro-2-methylphenyl)-3-(m-methoxyphenyl)-1H-1,2,4-triazole] |  |  | ≥ 60% |  | ~60% | 5 mg/kg | 0.04 mg/kg
COc1cccc(-c2n[nH]c(-c3cc(Cl)ccc3C)n2)c1 [Example 32, 5-(5-Chloro-2-methylphenyl)-3-(m-methoxyphenyl)-1H-1,2,4-triazole] |  |  | ≥ 60% |  | ~60% |  | 0.35 mg/kg
COc1cccc(-c2n[nH]c(-c3ccc(OC)cc3C)n2)c1 [Example 34, 5-(4-Methoxy-2-methylphenyl)-3-(m-methoxyphenyl)-1H-1,2,4-triazole] |  |  |  |  |  |  | 0.2 mg/kg
CCOc1cccc(-c2n[nH]c(-c3ccccc3CC)n2)c1 [Example 35, 3-(m-Ethoxyphenyl)-5-(o-ethylphenyl)-1H-1,2,4-triazole] |  |  |  |  |  | 3 mg/kg | 0.04 mg/kg
CCc1ccccc1-c1nc(-c2ccc(OC)cc2)n[nH]1 [Example 36, 5-(o-Ethylphenyl)-3-(p-methoxyphenyl)-1H-1,2,4-triazole] |  |  |  |  |  | 5 mg/kg | 0.15 mg/kg
CCc1ccccc1-c1nc(-c2ccc(OC)c(OC)c2)n[nH]1 [Example 37, 5-(o-Ethylphenyl)-3-(3,4-dimethoxyphenyl)-1H-1,2,4-triazole] |  |  |  |  |  |  | 0.05 mg/kg
